Source: publication PMC3260180, “FRET-Based Detection of M1 Muscarinic Acetylcholine Receptor Activation by Orthosteric and Allosteric Agonists” (PLoS ONE, 2012)

What was measured:
M1-cam5 AChR = molecular target: T1, M1-cam5 AChR (Mus musculus, UniProt P12657, INS361[…]); assay: [3H]NMS competition binding in intact HEK293-M1-cam5 cell monolayers; settings: [3H]NMS (~0.3 nM) competition, agonists 4°C for 4 h, antagonists 37°C for 45 min, mean ± s.e.m.
T1 construct: addition of the EYFP^F46L to the C-terminus of full length M1 mAChR; expressed in transfected cells; host or cells: HEK293 cells stably expressing M1-cam5 (HEK293-M1-cam5)
Experimental: Briefly, HEK293-M1-cam5 cells were seeded at a density of 75,000 cells/well in 24-well plates. […] […] After cell solubilization, SafeFluor scintillation fluid was added, and samples were counted on a scintillation counter.

M1-cam5 mAChR [1] = molecular target: T2, M1-cam5 mAChR (Mus musculus, UniProt P12657, INS361[…]); assay: FRET measurements (FEYFP/FECFP) in HEK293-M1-cam5 cells; format: cell-based; design: addition of the EYFP^F46L to the C-terminus of full length M1 mAChR; expressed in transfected cells; host or cells: HEK293 cells stably expressing M1-cam5 (HEK293-M1-cam5); settings: for maximal FRET decrease: maximally effective concentration (MCh 300 µM, arecoline 300 µM, pilocarpine 300 µM, 77-LH-28-1 10 µM, AC-42 30 µM), room temperature
Experimental: The experiments were performed at room temperature.
We also assessed the kinetics of MCh-mediated receptor conformational change with time-resolved determinations of the FRET signal recorded from single cells on activation of M1-cam5 mAChR with various concentrations of MCh.

M1-cam5 mAChR [2] = molecular target: T2, M1-cam5 mAChR; assay: Receptor internalization by confocal microscopy in HEK293-M1-cam5 cells; format: cell-based; design: addition of the EYFP^F46L to the C-terminus of full length M1 mAChR; expressed in transfected cells; host or cells: HEK293 cells stably expressing M1-cam5 (HEK293-M1-cam5)
Experimental: Cells were seeded on coverslips coated with 100 µg/mL poly-D-lysine in PBS. When 70–80% confluency was reached, in some instances the cells were treated with various concentrations of agonists at 37°C and fixed with 4% paraformaldehyde. After a 5 min wash with PBS, the slides were mounted with Slowfade Gold/DAPI (Invitrogen, UK). The slides were examined using an Olympus FV500 confocal microscope, ECFPc and EYFP^F46L were excited via the 458 nm and 515 nm line of the argon laser and emissions were then collected at 480–495 nm and 535–565 nm, respectively. Optical sections (0.5 µm) were taken, and representative sections corresponding to the middle of the cells are presented. For each treatment, between 20 and 30 individual cells in three random fields of view were selected and examined. Fluorescence intensity of specific regions of interest (longitudinal axis) was quantified by using the Measure function of Image J software developed at the National Institutes of Health (http://rsb.info.nih.gov/ij/), as previously described. Briefly, relative quantification of intracellular (internalized) M1-cam5 was determined by measuring the amount of total fluorescence along the longitudinal axis corresponding to the intracellular space (average 4–18 ìm) excluding nucleus. Intracellular fluorescence in cells not treated with the agonist was considered to be basal fluorescence (assigned the value of 1). All other data are normalized to this basal fluorescence level.
Figure 4 Internalization characteristics of the M1-cam5 mAChR stably expressed in HEK293 cells. HEK293-M1-cam5 cells were treated with various concentration of MCh for 45 min (to assess the concentration-dependency of receptor internalization), or with MCh (300 µM) for 0–60 min (to assess the time-dependency of receptor internalization). Cellular distributions of M1-cam5 mAChR were monitored by confocal microscopy. For quantification of intracellular fluorescence at least […] of view were examined as described in the Methods section. […]

M1-cam5 mAChR [3] = molecular target: T2, M1-cam5 mAChR; assay: Total [3H]inositol phosphate accumulation in HEK293-M1-cam5 cells; format: cell-based; design: addition of the EYFP^F46L to the C-terminus of full length M1 mAChR; expressed in transfected cells; host or cells: HEK293 cells stably expressing M1-cam5 (HEK293-M1-cam5); settings: in presence of Li+ (10 mM)
Experimental: (§1) HEK293-M1-cam5 and HEK293 cells were seeded at 100,000 cells/well in 24-well plates and incubated in fresh medium containing 2.5 µCi/mL [^3H]inositol for 48 h. The assay was performed as previously described.
As an index of PLC activation, agonist-stimulated accumulation of total [^3H]IPx was assessed in the presence of Li^+ (10 mM). […] On removal of agonist, the eGFP-PH biosensor translocated back to the plasma membrane.

M1-cam5 mAChR [4] = molecular target: T2, M1-cam5 mAChR; settings: 1–300 µM for 5 min, serum-starved HEK293-M1-cam5 cells
Experimental: Proteins were visualized using ECL reagent from GE Healthcare (Chalfont St. Giles, UK).
Phosphoinositide turnover was assessed by monitoring the translocation of the eGFP-PH probe from the plasma membrane to the cytoplasm on addition of MCh (10 µM) for 60 s, followed by washout.

M3 mAChRs = assay: Total [3H]inositol phosphate accumulation in wild-type HEK293 cells; format: cell-based, human; settings: Li+ (10 mM)
Experimental: as §1
As an index of PLC activation, agonist-stimulated accumulation of total [^3H]IPx was assessed in the presence of Li^+ (10 mM).

[5] = molecular target: M1-3ic-ECFPc and M1-cterm-EYFP^F46L (Mus musculus, UniProt P12657, INS361[…]); assay: FRET control with coexpressed M1-3ic-ECFPc and M1-cterm-EYFPF46L in HEK293 cells; settings: 300 µM
Experimental: Briefly, HEK293 cells grown on coverslips were mounted on a Nikon Eclipse TE2000-S inverted microscope (Nikon) using an “Attofluor” cell chamber (Molecular Probes, Leiden, The Netherlands) and continuously superfused with HBS (150 mM NaCl, 10 mM HEPES, 10 mM glucose, 2.5 mM KCl, 4 mM CaCl2, 2 mM MgCl2, pH 7.4). Cells were observed using an oil immersion 63× lens, a polychrome V (Till Photonics, Gräfelfing, Germany) for excitation, and a dual emission photometric system. In order to minimize photobleaching, illumination time was set to 10–40 ms, applied with a frequency of 10 Hz. Fluorescence was measured at 535±15 nm (F535) and 480±20 nm (F480) (beam splitter DCLP 505 nm, Chroma Technology, Rockingham, VT, USA) on excitation at 436±10 nm (beam splitter DCLP 460 nm, Chroma Technology). The signals were detected by avalanche photodiodes and digitized using an analog/digital converter (Digidata 1322A, Axon Instruments, Union City, CA, USA) and stored on a PC using Axoscope software (Axon Instruments). The experiments were performed at room temperature.
FRET was assessed using the ratio of normalized EYFP^F46L/ECFPc fluorescence intensities.
HEK-293 cells were transiently transfected with either (A) M1-cam5 or (B) two separate plasmids, one encoding M1 with a C-terminal YFP^F46L tag and the other encoding M1 with an ECFPc tag at the same third intracellular loop location as M1-cam5. […]

M1-cam5 = molecular target: T3, M1-cam5 (Mus musculus, UniProt P12657, INS361[…]); assay: eGFP-PH biosensor translocation (phosphoinositide turnover) in HEK293-M1-cam5 cells; format: cell-based; settings: 10 µM for 60 s
T3 construct: addition of the EYFP^F46L to the C-terminus of full length M1 mAChR; expressed in transfected cells; host or cells: HEK293 cells stably expressing M1-cam5 (HEK293-M1-cam5)

CCCCC1CCN(CCCN2C(=O)CCc3ccccc32)CC1 [77-LH-28-1]
pK B (apparent binding affinity, −log K B) (M1-cam5 AChR): 6.17±0.12
maximal FRET decrease (M1-cam5 mAChR [1]): 6.4±0.4%

CCCCC1CCN(CCCC(=O)c2ccccc2C)CC1 [AC-42]
M1-cam5 mAChR internalization (endocytosis) (M1-cam5 mAChR [2]): resulted in receptor endocytosis
pK B (apparent binding affinity, −log K B) (M1-cam5 AChR): 5.11±0.11
maximal FRET decrease (M1-cam5 mAChR [1]): 5.1±0.3%

CC(=O)OC(C)C[N+](C)(C)C (stereo not drawn) [MCh, methacholine]
[3H]IPx accumulation, maximal stimulation (M1-cam5 mAChR [3]; basal 3,781±1,792): 41,954±1,030 d.p.m. mg^−1 protein
increase in [3H]IPx accumulation, maximal stimulation (M1-cam5 mAChR [3]; over basal): 11 fold
M1-cam5 mAChR internalization (endocytosis) (M1-cam5 mAChR [2]): internalized in response to MCh in a concentration- and time-dependent manner
ERK1/2 phosphorylation (M1-cam5 mAChR [4]): rapid increase
EC50 right-shift of [3H]IPx accumulation relative to HEK293-M1-cam5 cells (M3 mAChRs): > 10 fold
FRET response in cells coexpressing singly tagged receptors [5]: no FRET response
maximal FRET decrease (M1-cam5 mAChR [1]): 9.8±0.4%
translocation of the eGFP-PH biosensor from the plasma membrane to the cytoplasm (M1-cam5): detectable translocation

CN1[C@@H]2CC[C@H]1C[C@@H](OC(=O)C(CO)c1ccccc1)C2 (stereo partly drawn) [atropine]
effect alone on basal M1-cam5 FRET signal (M1-cam5 mAChR [1]): no effect
prevention of agonist-induced FRET change by pre-addition (M1-cam5 mAChR [1]): completely prevented
reversal of agonist-induced FRET change (M1-cam5 mAChR [1]): reversed

C[N+](C)(C)CC#CCN1CCCC1=O [oxo-M, oxotremorine-M]
M1-cam5 mAChR internalization (endocytosis) (M1-cam5 mAChR [2]): resulted in receptor endocytosis
pK B (apparent binding affinity, −log K B) (M1-cam5 AChR): 5.94±0.10
